Data reported in patent US20190070170A1, “METHOD OF S[…]-1” (Macau University of Science and Technology, priority 2017, published 2019).

Tests used:
[1] = test system: CREB; assay: CREB pathway (p-CREB) in LPS-stimulated rat peritoneal macrophages (western blotting); assay type: cell-based; conditions: SIN 1 h, LPS 1 μg/ml 15 min or 1 h
Experimental: (§1) Sprague-Dawley (SD) rats from the University of Hong Kong were housed in cages with free access to food and water. Peritoneal macrophages of SD rats were isolated as described in Liu J. et al., Pharmacological research 2016, 111:303-315. Briefly, untreated rats were sacrificed and after laparotomy, about 50 ml cold sterile Hank's balanced salt solution (HBSS) was used to lavage the peritoneal cavity at twice, and then the peritoneal lavage fluid was collected and centrifuged at 1500 rpm for 10 min. The cell pellets was suspended at a density 1.5×10^6 cells/ml in pre-hearted DMEM medium with 10% heat-inactivated FBS, penicillin G (100 units/ml), streptomycin ([…]), and L-glutamine (2 mM), followed by seeding in 6-well plates at a density of 4.5×10^6 cells and incubation for 2 h. Then the medium were discarded to remove the non-adherent cells. The adherent cells were further washed for two times with pre-heated DMEM medium to remove floating cells. Next, cells were pre-treated with various concentration of SIN for 1 h, followed by stimulation with LPS (1 μg/ml).
Whole-cell and nuclear proteins were obtained using RIPA lysis buffer (CST, Boston, Mass., USA) and Nuclear and Cytoplasmic Extraction Reagents kit from Thermo Scientific (Asheville, N.C., USA), respectively. […] The levels of protein expression were measured using Odyssey v3.0 software from Li-COR (Lincoln, Nebr., USA).

[2] = test system: PGD2; assay: PGD2 level in culture supernatants of LPS-activated rat peritoneal macrophages (ELISA); assay type: cell-based; conditions: LPS-stimulated rat peritoneal macrophages, culture supernatant
Experimental: as §1
RAW264.7 cells and rat peritoneal macrophages were seeded in a 96-well plate at density of 1.4×10^4 and 1.5×10^5 cells, respectively. […] The optical density was measured at 570 nm against a reference wavelength of 650 nm using a microplate UV/VIS spectrophotometer (Tecan, Mannedorf, Switzerland). […]

In the case of `COC1=C[C@@H]2[C@@H]3Cc4ccc(OC)c(O)c4[C@]2(CCN3C)CC1=O` [SIN, sinomenine], the “influence on CREB pathway” value [1] is reported as “No observable effects” and the “level of PGD2” value [2] is reported as “no significant influence”.
